# Reference: ChEMBL document CHEMBL5625204, “Synthesis and pharmacodynamic evaluation of naphthalene derivatives against influenza A virus in vitro and in vivo” (Eur J Med Chem, 2023)
# The source made the active and inactive calls. No cut-off for these calls is given here.
# Legend:
# Influenza A virus [1] = assay: Antiviral activity against Influenza A virus H1N1 (A/Weiss/43)-infected in BALB/c mouse assessed as reduction in viral NP mRNA expression in lungs at 25 to 100 mg/kg/day administered intranasally for 2 to 6 days starting from 3 hrs post-viral infection by qRT-PCR analysis; assay type: functional, organism-based; settings: dose 25-100 mg/kg/day, route nas, time 2-6 day
# Influenza A virus [2] = assay: Antiviral activity against Influenza A virus H1N1 infected in human A549 cells assessed as decrease in apoptosis by measuring decrease in Bax to Bcl-2 ratio at 25 to 50 uM measured after 24 hrs by western blot analysis; assay type: functional, organism-based; settings: dose 25-50 µM
# Influenza A virus [3] = assay: Antiviral activity against Influenza A virus H1N1 (A/Weiss/43)-infected in BALB/c mouse assessed as reduction in lung index at 100 mg/kg/day administered intranasally for 6 days starting from 3 hrs post-viral infection; assay type: functional; settings: 144 h, route nas, time 6 day
# Influenza A virus [4] = assay: Antiviral activity against Influenza A virus H1N1 (A/Weiss/43) infected in MDCK cells assessed as reduction of viral replication treated for 72 hrs after viral adsorption by TCID50 method; assay type: functional, organism-based
# Influenza A virus [5] = assay: Antiviral activity against Influenza A virus H1N1 infected in dog MDCK cells assessed as decrease in apoptosis by measuring proportion of early apoptotic cells at 25 uM measured after 72 hrs by AnnexinV-FITC/PI staining based flow cytometry (reference value: 24.3%); assay type: functional; design: scale not given: the % may be the effect or the level left
# Influenza A virus [6] = assay: Inhibition of Influenza A virus replication infected in human A549 cells assessed as downregulation of virus NP protein expression at 25 to 50 uM measured after 24 hrs by western blot analysis; assay type: functional, organism-based; settings: dose 25-50 µM
# Influenza A virus [7] = assay: Antiviral activity against Influenza A virus H1N1 (A/Weiss/43)-infected in BALB/c mouse assessed as reduction in lung tissue damage administered intranasally for 4 to 6 days starting from 3 hrs post-viral infection; assay type: functional, organism-based; settings: dose 25-100 mg/kg/day, route nas, time 4-6 day
# Influenza A virus [8] = assay: Antiviral activity against Influenza A virus H1N1 infected in human A549 cells assessed as decrease in apoptosis inducing factor gene expression by measuring decrease in TRAIL gene expression at 25 to 50 uM measured after 24 hrs by qRT-PCR analysis; assay type: functional, organism-based; settings: dose 25-50 µM
# Influenza A virus [9] = assay: Antiviral activity against Influenza A virus H1N1 (A/Weiss/43) infected in MDCK cells assessed as reduction of viral replication treated for 2 hrs during viral adsorption and measured after 72 hrs by TCID50 method; assay type: functional, organism-based
# Influenza A virus [10] = assay: Antiviral activity against Influenza A virus H1N1 infected in human A549 cells assessed as decrease in RIG-1 pathway related gene expression by measuring decrease in RIG-1 gene expression at 25 to 50 uM measured after 24 hrs by qRT-PCR analysis; assay type: functional, organism-based; settings: dose 25-50 µM
# MDCK = assay: Cytotoxicity against dog MDCK cells assessed as cell pathological changes at 50 uM by microscopic analysis; assay type: toxicity, cell-based, Canis lupus familiaris
# Influenza A virus [11] = assay: Antiviral activity against Influenza A virus H1N1 (A/Weiss/43)-infected in BALB/c mouse assessed as reduction in IFN-beta gene expression in lungs at 25 to 100 mg/kg/day administered intranasally for 6 days starting from 3 hrs post-viral infection by qRT-PCR analysis; assay type: functional, organism-based; settings: dose 25-100 mg/kg/day, route nas, time 6.0 day
# Influenza A virus [12] = assay: Antiviral activity against Influenza A virus H1N1 infected in human A549 cells assessed as decrease in RIG-1 pathway related gene expression by measuring decrease in IRF7 gene expression at 25 to 50 uM measured after 24 hrs by qRT-PCR analysis; assay type: functional, organism-based; settings: dose 25-50 µM
# Influenza A virus [13] = assay: Antiviral activity against Influenza A virus H1N1 (A/Weiss/43)-infected in BALB/c mouse assessed as reduction in IL-8 gene expression in lungs at 25 to 100 mg/kg/day administered intranasally for 6 days starting from 3 hrs post-viral infection by qRT-PCR analysis; assay type: functional, organism-based; settings: dose 25-100 mg/kg/day, route nas, time 6.0 day
# [14] = Toxicity in dog MDCK cells assessed as proportion of necrotic cells at 50 uM measured after 72 hrs by AnnexinV-FITC/PI staining based flow cytometry (reference value: 1.4%); assay type: cell-based, Canis lupus familiaris
# Erythrocyte = assay: Inhibition of Hemagglutinin1 in Influenza A virus assessed as inhibition of virus-induced hemagglutination at 7.81 to 250 uM pretreated with virus for 30 mins followed by chicken RBC addition and measured after 1 hr; assay type: cell-based; settings: dose 7.81-250 µM, time 90.0 min
# Influenza A virus [15] = assay: Antiviral activity against Influenza A virus H1N1 infected in dog MDCK cells assessed as decrease in apoptosis by measuring proportion of viable cells at 25 uM measured after 72 hrs by AnnexinV-FITC/PI staining based flow cytometry (reference value: 62.9%); assay type: functional
# [16] = Toxicity in dog MDCK cells assessed as proportion of early apoptotic cells at 50 uM measured after 72 hrs by AnnexinV-FITC/PI staining based flow cytometry (reference value: 4.51%); assay type: cell-based, Canis lupus familiaris
# Influenza A virus [17] = assay: Antiviral activity against Influenza A virus H1N1 (A/Weiss/43)-infected in BALB/c mouse assessed as reduction in Mx1 gene expression in lungs at 25 to 100 mg/kg/day administered intranasally for 6 days starting from 3 hrs post-viral infection by qRT-PCR analysis; assay type: functional, organism-based; settings: dose 25-100 mg/kg/day, route nas, time 6.0 day
# Influenza A virus [18] = assay: Antiviral activity against Influenza A virus H1N1 infected in human A549 cells assessed as decrease in apoptosis by measuring decrease in cleaved PARP protein expression at 25 to 50 uM measured after 24 hrs by western blot analysis; assay type: functional, organism-based; settings: dose 25-50 µM
# Influenza A virus [19] = assay: Antiviral activity against Influenza A virus H1N1 (A/Weiss/43)-infected in dog MDCK cells assessed as reduction in oxidative stress by measuring proportion of normal cells at 25 uM treated at 2 hrs post-infection and measured after 36 hrs by DCFH-DA staining based flow cytometry (reference value: 69.4%); assay type: functional; design: scale not given: the % may be the effect or the level left
# Influenza A virus [20] = assay: Antiviral activity against Influenza A virus H1N1 infected in human A549 cells assessed as decrease in cytokine gene expression by measuring decrease in IP-10 gene expression at 25 to 50 uM measured after 24 hrs by qRT-PCR analysis; assay type: functional, organism-based; settings: dose 25-50 µM
# [21] = Toxicity in dog MDCK cells assessed as proportion of late apoptotic cells at 50 uM measured after 72 hrs by AnnexinV-FITC/PI staining based flow cytometry (reference value: 3.45%); assay type: cell-based, Canis lupus familiaris
# Influenza A virus [22] = assay: Inhibition of Influenza A virus replication infected in dog MDCK cells assessed as downregulation of virus M gene expression at 25 to 50 uM measured after 24 to 72 hrs post-infection by qRT-PCR analysis; assay type: functional, organism-based; settings: dose 25-50 µM
# Influenza A virus [23] = assay: Antiviral activity against Influenza A virus H1N1 (A/Virginia/ATCC2/2009) infected in MDCK cells assessed as reduction of viral replication incubated for 72 hrs by TCID50 method; assay type: functional, organism-based
# Influenza A virus [24] = assay: Antiviral activity against Influenza A virus H1N1 infected in human A549 cells assessed as decrease in cytokine gene expression by measuring decrease in IFN-beta gene expression at 25 to 50 uM measured after 24 hrs by qRT-PCR analysis; assay type: functional, organism-based; settings: dose 25-50 µM
# Influenza A virus [25] = assay: Inhibition of Influenza A virus replication infected in dog MDCK cells assessed as downregulation of virus M2 protein expression by measuring decrease in green fluorescence intensity at 25 to 50 uM measured after 24 hrs by immunofluorescence analysis; assay type: functional, organism-based; settings: dose 25-50 µM
smiles,measurement,setting,value
O=[N+]([O-])c1ccc(S(=O)(=O)N(Cc2ccccc2)c2cccc3ccccc23)cc1,Activity,Influenza A virus [1],Active
same,inhibition,Influenza A virus [2],Active
same,inhibition in vivo at 100 mg/kg/day,Influenza A virus [3],43.3%
same,EC50,Influenza A virus [4],2.28 µM
same,Activity,Influenza A virus [5],2.55%
same,inhibition,Influenza A virus [6],Active
same,Activity,Influenza A virus [7],Dose-Dependent Effect
same,inhibition,Influenza A virus [8],Active
same,EC50,Influenza A virus [9],6.09 µM
same,inhibition,Influenza A virus [10],Active
same,Activity,MDCK,Non-Toxic
same,Activity,Influenza A virus [11],Active
same,inhibition,Influenza A virus [12],Active
same,Activity,Influenza A virus [13],Active
same,Activity,[14],0.82%
same,inhibition,Erythrocyte,inactive
same,Activity,Influenza A virus [15],95.4%
same,Activity,[16],1.56%
same,Activity,Influenza A virus [17],Active
same,inhibition,Influenza A virus [18],Active
same,Activity,Influenza A virus [19],87.7%
same,inhibition,Influenza A virus [20],Active
same,Activity,[21],0.71%
same,inhibition,Influenza A virus [22],Active
same,EC50,Influenza A virus [23],3.34 µM
same,inhibition,Influenza A virus [24],Active
same,inhibition,Influenza A virus [25],Active
